Measurements as given in US12702715B2, “Targeted RNA degradation allows precision repurposing of protein-targeted small molecule medicines to RNA” (University of Florida Research Foundation, Incorporated, priority 2020, dated 2026).
Entries after “also recorded” stand apart in the source; their conditions may differ.

Assays:
Format in all cases: cell-based, human
pre-miR-21 [1] = assay: Cellular Chem-CLIP and C-Chem-CLIP to study occupancy of pre-miR-21; settings: increasing concentrations, 4 constant
Procedure: Cellular Chem-CLIP and C-Chem-CLIP to Study Occupancy of pre-miR-2L MDA-MB-231 cells in 100 mm dishes (~90% confluency) were treated with 4 or 5 for 6 h at 37° C. Then the cells were washed with 1×DPBS and cross-linked under 365 nm light for 10 min in ice cold 1×DPBS. The cells were harvested by scraping and pelleted by centrifugation. Total RNA was extracted by using the miRNeasy mini kit (Qiagen) per the manufacturer's protocol. Approximately 50 μg of total RNA was clicked to disulfide biotin azide as described in the “In Vitro Chem-CLIP and Competitive Chem-CLIP (C-Chem-CLIP)” section. Streptavidin beads (10 μL) were added, and the samples were incubated, with shaking, for 2 h at 37° C. The beads were then washed with 1× Wash Buffer (10 mM Tris-HCl, pH 7.0, 4 M NaCl, 1 mM EDTA) three times and then once with nanopure water. Bound RNAs were eluted from the beads by incubating with 200 μL of 1:1 TCEP (200 mM) pre-reduced with 600 mM of K2CO3 for 30 min at 37° C. The reaction was quenched by treatment with an equal volume of 400 mM of iodoacetamide for 30 min at room temperature. The supernatant was collected, and the beads were washed once with nanopure water: the water was added to the eluant. The combined eluant was cleaned up using RNAClean XP beads according to the manufacturer's protocol. The obtained RNA was then subjected to RT-qPCR. Enrichment of pre-miR-21 was calculated as previously described^6. Cellular C-Chem-CLIP was completed by pre-treating with 1 (1 or 5 μM) or 3 (1 or 5 μM) for 6 h, followed by dosing with 4 (5 μM) for 6 h. Sample preparation and data analysis were completed as described above for cellular Chem-CLIP studies.

pre-miR-21 [2] = assay: RT-qPCR of pre-miR-21 levels in MDA-MB-231 cells
Procedure: Cell Culture. Cells were cultured at 37° C. and 5% CO2. MDA-MB-231 cells (HTB-26, ATCC) were cultured in RMPI 1640 medium with L-glutamine & 25 mM HEPES supplemented with 1× Antibiotic/Antimycotic solution (Corning) and 10% FBS. MCF-10A cells (CRL-10317, ATCC) were cultured in 1×DMEM/F12 50/50 with L-glutamine & 15 mM HEPES (Corning) supplemented with 20% FBS, 1× Antibiotic/Antimycotic solution, 20 ng/mL human epidermal growth factor (Pepro Tech, Inc.), 10 μg/mL insulin (Sigma-Aldrich), and […] hydrocortisone (Pfaltz & Bauer). For compound treatment, compound stocks either in DMSO or water were diluted in growth medium and added to cells for the indicated time. Plasmid DNA to overexpress pre-miR-21 in pcDNA 3.1 (Addgene 21114) or a plasmid DNA encoding the pre-miR-21 mutant (custom purchased from GenScript USA, Inc.) was transfected with jetPRIME per the manufacturer's protocol. After transfection, the medium was replaced with growth medium containing the compound of interest, prepared as described above. The RNase L-targeting siRNA or a control siRNA was transfected with Lipofectamine RNAiMAX reagent (Invitrogen) per the manufacturer's protocol.
(§1) RNA Isolation and Quantitative Real-Time PCR (RT-qPCR). After treatment, total RNA was extracted and purified by using the Zymo Quick-RNA mini prep kit per the manufacturer's protocol. Reverse Transcription (RT) for mature miRNAs as well as pri- and pre-miR-21 was completed on 200 ng of RNA by using a miScript 11 RT kit (QIAGEN) according to manufacturer's protocol. RT of mRNAs was performed by using QScript kit (Quanta Bio). An Applied Biosystems QS5 384-well PCR system was used to complete qPCR experiments using Power Sybr Green Mater Mix (Life Technologies) as described previously^6.

[3] = system: RTK / phosphorylation of ERK (pERK); assay: Western blot of ERK phosphorylation (functional RTK inhibition) in MDA-MB-231 cells
Procedure: Western Blotting. MDA-MB-231 cells were plated in 6-well plates. […] The cells were harvested by trypsinization, and total protein was extracted with MPER (Mammalian Protein Extraction Reagent, Thermo Scientific) as previously described^6. Protein concentrations were determined by using a Pierce Micro BCA Protein Assay kit (Fisher Scientific). […] ImageJ software was used for quantification of the protein bands. […] In each case, the secondary antibody was diluted two times more than the primary antibody.

FLT3 = FLT3 degradation Western blot in MDA-MB-231 cells; settings: MDA-MB-231
Procedure: In each case, the secondary antibody was diluted two times more than the primary antibody.

miR-21 = assay: RT-qPCR of mature miR-21 levels in MDA-MB-231 cells
Procedure: Cell Culture. Cells were cultured at 37° C. and 5% CO2. […] For compound treatment, compound stocks either in DMSO or water were diluted in growth medium and added to cells for the indicated time. […] After transfection, the medium was replaced with growth medium containing the compound of interest, prepared as described above. The RNase L-targeting siRNA or a control siRNA was transfected with Lipofectamine RNAiMAX reagent (Invitrogen) per the manufacturer's protocol.
as §1

PTEN = PTEN luciferase assay; settings: MDA-MB-231
Procedure: PTEN Luciferase Assay. To study de-repression of PTEN, a luciferase-based cellular assay was performed as previously described^6. Briefly, MDA-MB-231 cells (~60% confluency) in 48-well plates were co-transfected with plasmids encoding Renilla luciferase (for normalization) and firefly luciferase fused to the 3′ UTR of PTEN by using Lipofectamine 2000 according to the manufacturer's protocol. After 5 h, the cells were treated with the compounds diluted in growth medium. Luciferase assay were then completed as previously described^4, 9.

IC50 ([3]; Homo sapiens, MDA-MB-231): 20 nM | PTEN expression (luciferase-based assay) (PTEN): derepressed
SMILES: Cc1ncsc1-c1ccc(CNC(=O)[C@@H]2C[C@@H](O)CN2C(=O)[C@@H](NC(=O)NCCOCCOCCOCCOCCC(=O)NCCN2CCN(c3ccc4[nH]c(-c5c(N)c6c(F)cccc6[nH]c5=O)nc4c3)CC2)C(C)(C)C)cc1 [Compound 3, Protac-Dovitinib]
competition of pull-down of pre-miR-21 with 4 (pre-miR-21 [1]): similarly diminished | pre-miR-21 levels (pre-miR-21 [2]; MDA-MB-231, RT-qPCR): increased; also recorded: boosted | competition of cleavage of pre-miR-21 by RIBOTAC 2 (pre-miR-21 [2]; constant concentration of 2 (1 μM), increasing competitor): abated the cleavage | fold increase of RTK inhibition relative to 1 [3]: 5 fold | inhibition of ERK phosphorylation compared to 1 ([3]; Western blot): more potent than 1 | FLT3 levels / degradation (FLT3): low nanomolar activity; also recorded: induced degradation of FLT3 in a dose-dependent manner | fold increase in potency / miR-21 inhibitory activity compared with 1 (miR-21; MDA-MB-231): similar | mature miR-21 levels (miR-21; MDA-MB-231, RT-qPCR): reduced
